pEC50: −log10 of the molar value.
Target: T1, ΔF508-CFTR (Homo sapiens, UniProt P13569, DEL508-508)
T1 construct: expressed in transfected cells
Experiment: Membrane potential optical (FRET/VIPR) assay, identification of correction compounds
Assay type: cell-based
Settings: Table 3, assay not given; for Emax: read-out: % Activity / % Efficacy (relative efficacy)
From the text: I) Membrane Potential Optical Methods for Assaying ΔF508-CFTR Modulation Properties of Compounds
These voltage sensitive assays are based on the change in fluorescence resonant energy transfer (FRET) between the membrane-soluble, voltage-sensitive dye, DiSBAC2(3), and a fluorescent phospholipid, CC2-DMPE, which is attached to the outer leaflet of the plasma membrane and acts as a FRET donor. Changes in membrane potential (Vm) cause the negatively charged DiSBAC2(3) to redistribute across the plasma membrane and the amount of energy transfer from CC2-DMPE changes accordingly. The changes in fluorescence emission were monitored using VIPR™ II, which is an integrated liquid handler and fluorescent detector designed to conduct cell-based screens in 96- or 384-well microtiter plates.
Identification of Correction Compounds
To identify small molecules that correct the trafficking defect associated with ΔF508-CFTR; a single-addition HTS assay format was developed. The cells were incubated in serum-free medium for 16 hrs at 37° C. in the presence or absence (negative control) of test compound. As a positive control, cells plated in 384-well plates were incubated for 16 hrs at 27° C. to “temperature-correct” ΔF508-CFTR. The cells were subsequently rinsed 3× with Krebs Ringers solution and loaded with the voltage-sensitive dyes. To activate ΔF508-CFTR, 10 μM forskolin and the CFTR potentiator, genistein (20 μM), were added along with Cl^− free medium to each well. The addition of Cl^− free medium promoted Cl^− efflux in response to ΔF508-CFTR activation and the resulting membrane depolarization was optically monitored using the FRET-based voltage-sensor dyes.
• Bath Solution #1: (in mM) NaCl 160, KCl 4.5, CaCl2 2, MgCl2 1, HEPES 10, pH 7.4 with NaOH. • Chloride-free bath solution: Chloride salts in Bath Solution #1 are substituted with gluconate salts. • CC2-DMPE: Prepared as a 10 mM stock solution in DMSO and stored at −20° C. • DiSBAC2(3): Prepared as a 10 mM stock in DMSO and stored at −20° C.
NIH3T3 mouse fibroblasts stably expressing ΔF508-CFTR are used for optical measurements of membrane potential. The cells are maintained at 37° C. in 5% CO2 and 90% humidity in Dulbecco's modified Eagle's medium supplemented with 2 mM glutamine, 10% fetal bovine serum, 1×NEAA, β-ME, 1×pen/strep, and 25 mM HEPES in 175 cm^2 culture flasks. For all optical assays, the cells were seeded at 30,000/well in 384-well matrigel-coated plates and cultured for 2 hrs at 37° C. before culturing at 27° C. for 24 hrs. for the potentiator assay.

T1 sequence (P13569 with tags, fused parts or gaps DEL508-508): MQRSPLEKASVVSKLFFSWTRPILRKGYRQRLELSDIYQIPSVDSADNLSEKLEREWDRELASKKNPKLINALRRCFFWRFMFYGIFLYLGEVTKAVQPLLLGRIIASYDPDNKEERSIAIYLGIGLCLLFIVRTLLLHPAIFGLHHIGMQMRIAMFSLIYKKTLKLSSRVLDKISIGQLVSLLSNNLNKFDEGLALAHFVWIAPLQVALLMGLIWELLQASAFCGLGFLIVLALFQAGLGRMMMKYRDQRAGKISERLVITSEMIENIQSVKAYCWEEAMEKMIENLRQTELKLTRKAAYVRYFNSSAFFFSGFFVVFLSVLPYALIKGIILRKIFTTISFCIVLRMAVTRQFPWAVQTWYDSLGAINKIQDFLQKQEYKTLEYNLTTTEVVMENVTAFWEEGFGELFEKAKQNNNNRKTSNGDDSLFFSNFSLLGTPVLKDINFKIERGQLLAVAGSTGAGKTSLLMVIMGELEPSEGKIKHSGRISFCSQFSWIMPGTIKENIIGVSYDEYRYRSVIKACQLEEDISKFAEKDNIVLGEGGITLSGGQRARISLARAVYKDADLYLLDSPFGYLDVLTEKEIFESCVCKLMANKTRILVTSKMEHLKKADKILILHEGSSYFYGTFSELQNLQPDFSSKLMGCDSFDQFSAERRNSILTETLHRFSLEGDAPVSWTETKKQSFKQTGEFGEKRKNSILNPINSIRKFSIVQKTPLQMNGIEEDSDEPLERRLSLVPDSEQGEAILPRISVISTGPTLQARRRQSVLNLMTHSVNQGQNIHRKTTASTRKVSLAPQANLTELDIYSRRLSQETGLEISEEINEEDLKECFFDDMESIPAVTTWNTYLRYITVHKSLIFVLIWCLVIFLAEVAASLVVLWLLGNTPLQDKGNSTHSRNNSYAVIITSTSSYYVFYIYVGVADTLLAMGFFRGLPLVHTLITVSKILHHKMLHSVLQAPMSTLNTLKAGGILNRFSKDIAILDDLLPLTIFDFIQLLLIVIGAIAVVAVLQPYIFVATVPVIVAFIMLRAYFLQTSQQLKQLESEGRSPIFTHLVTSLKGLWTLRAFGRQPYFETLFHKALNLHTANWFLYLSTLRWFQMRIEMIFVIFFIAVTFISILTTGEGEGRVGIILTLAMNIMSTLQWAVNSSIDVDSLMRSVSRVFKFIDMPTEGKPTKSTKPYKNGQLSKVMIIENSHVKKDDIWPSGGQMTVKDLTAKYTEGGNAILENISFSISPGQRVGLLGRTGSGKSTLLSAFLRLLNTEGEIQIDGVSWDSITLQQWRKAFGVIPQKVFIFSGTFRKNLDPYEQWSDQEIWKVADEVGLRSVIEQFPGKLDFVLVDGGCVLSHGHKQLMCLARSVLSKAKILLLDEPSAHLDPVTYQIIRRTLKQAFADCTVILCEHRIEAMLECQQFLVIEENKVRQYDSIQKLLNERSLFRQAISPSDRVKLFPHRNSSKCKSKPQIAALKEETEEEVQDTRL

% Activity / % Efficacy (relative efficacy) | pEC50 | Emax | Compound
++ (“++” means between 25% to 100%) | 4.22 to 4.60 |  | CCN(CC)CCN(C(=O)C1(c2ccc(OC)cc2)CC1)c1ncc(Cc2ccccc2Cl)s1 [Example 75]
 | > 5.00 | > 100% | Cc1cccc(C2(C(=O)Nc3ncc(C(c4ccccc4Cl)N4CC[C@@H](O)C4)s3)CC2)c1 (stereo partly shown) [Example 450]
 | > 5.00 | > 100% | NC(=O)C1CCCN(C(c2cnc(NC(=O)C3(c4ccc5c(c4)OCO5)CC3)s2)c2ccccc2Cl)C1 (stereo not shown) [Example 418]
 | > 5.00 | > 100% | O=C(Nc1ncc(C(c2ccccc2F)N2CC[C@@H](O)C2)s1)C1(c2ccc3c(c2)OCO3)CC1 (stereo partly shown) [Example 472]
 | > 5.00 | > 100% | COc1ccc(C(c2cnc(NC(=O)C3(c4ccc5c(c4)OCO5)CC3)s2)N2CCOCC2)cc1 (stereo not shown) [Example 400]
 | 4.60 to 5.00 | > 100% | COC[C@@H]1CCCN1C(c1cnc(NC(=O)C2(c3ccc4c(c3)OCO4)CC2)s1)C(C)(C)C (stereo partly shown) [Example 387]
 | 4.60 to 5.00 | > 100% | COc1ccccc1C(c1cnc(NC(=O)C2(c3ccc4c(c3)OCO4)CC2)s1)N1CC[C@@H](O)C1 (stereo partly shown) [Example 346]
+++ (“+++” means>100%) | > 5.00 |  | COc1ccc(C2(C(=O)Nc3ncc(Cc4ccc(F)cc4F)s3)CC2)cc1 [Example 264]
+++ (“+++” means>100%) | > 5.00 |  | O=C(O)c1cccc(Sc2cnc(NC(=O)C3(c4ccc5c(c4)OCO5)CC3)s2)c1 [Example 106]
 | > 5.00 | > 100% | CCC(CO)NC(c1cnc(NC(=O)C2(c3ccc4c(c3)OCO4)CC2)s1)c1ccccc1Cl (stereo not shown) [Example 486]
 | > 5.00 | > 100% | COc1ccc(C(c2cnc(NC(=O)C3(c4ccc5c(c4)OCO5)CC3)s2)N2CCCCC2)cc1 (stereo not shown) [Example 361]
 | > 5.00 | > 100% | O=C(Nc1ncc(C(NC2CCC2)c2ccccc2Cl)s1)C1(c2ccc3c(c2)OCO3)CC1 (stereo not shown) [Example 417]
 | > 5.00 | > 100% | CC(C)[C@@H](CO)NC(c1cnc(NC(=O)C2(c3ccc4c(c3)OCO4)CC2)s1)c1ccccc1Cl (stereo partly shown) [Example 246]
 | > 5.00 | > 100% | CC(=O)O[C@@H]1CCN(C(c2cnc(NC(=O)C3(c4ccc5c(c4)OCO5)CC3)s2)c2ccccc2Cl)C1 (stereo partly shown) [Example 321]
+ (“+” means<25%) | > 5.00 |  | O=C(Nc1ncc(C(OCCCCO)c2ccccc2Cl)s1)C1(c2ccc3c(c2)OCO3)CC1 (stereo not shown) [Example 275]
 | > 5.00 | > 100% | O=C(Nc1ncc(C(Cc2ccccc2Cl)N2CC[C@@H](O)C2)s1)C1(c2ccc3c(c2)OCO3)CC1 (stereo partly shown) [Example 462]
+++ (“+++” means>100%) | > 5.00 |  | COc1ccc(C2(C(=O)Nc3ncc(C)s3)CC2)cc1 [Example 64]
 | > 5.00 | > 100% | O=C(Nc1ncc(C(c2ccccc2C(F)(F)F)N2CC[C@@H](O)C2)s1)C1(c2ccc3c(c2)OCO3)CC1 (stereo partly shown) [Example 464]

Continued, molecule first:

Compound | % Activity / % Efficacy (relative efficacy) | pEC50 | Emax
O=C(Nc1ncc(C(Cc2ccccc2Cl)N2CCC(O)CC2)s1)C1(c2ccc3c(c2)OCO3)CC1 (stereo not shown) [Example 460] |  | > 5.00 | > 100%
O=C(Nc1ncc(C(c2ccccc2Cl)N2CCC[C@@H]2CO)s1)C1(c2ccc3c(c2)OCO3)CC1 (stereo partly shown) [Example 229] |  | > 5.00 | > 100%
CCC(c1cnc(NC(=O)C2(c3ccc4c(c3)OCO4)CC2)s1)N1CC[C@@H](O)C1 (stereo partly shown) [Example 402] |  | 4.60 to 5.00 | > 100%
COc1cccnc1Cc1cnc(NC(=O)C2(c3ccc4c(c3)OCO4)CC2)s1 [Example 266] | +++ (“+++” means>100%) | > 5.00 | 
O=C(Nc1ncc(C(c2ccccc2Cl)N2CCC(O)C2)s1)C1(c2ccc3c(c2)OCO3)CC1 (stereo not shown) [Example 311] |  | > 5.00 | > 100%
COc1ccc(C2(C(=O)Nc3ncc(Cc4ccccc4OC)s3)CCOCC2)cc1 [Example 57] | +++ (“+++” means>100%) | > 5.00 | 
Cn1nc(-c2ccc(Cl)c(Cl)c2)cc1NC(=O)C1(c2ccc3c(c2)OCO3)CC1 [Example 287] |  | > 5.00 | > 100%
CS(=O)(=O)c1ccc(-c2csc(NC(=O)C3(c4ccc5c(c4)OCO5)CC3)n2)cc1 [Example 119] | ++ (“++” means between 25% to 100%) | > 5.00 | 
N#Cc1ccccc1Cc1cnc(NC(=O)C2(c3ccc4c(c3)OCO4)CC2)s1 [Example 62] | ++ (“++” means between 25% to 100%) | 4.60 to 5.00 | 
CCC[C@H](CO)NC(c1cnc(NC(=O)C2(c3ccc4c(c3)OCO4)CC2)s1)c1ccccc1Cl (stereo partly shown) [Example 489] |  | > 5.00 | > 100%
COc1ccc(C2(C(=O)Nc3ncc(Cc4ccccc4C)s3)CC2)cc1 [Example 280] | +++ (“+++” means>100%) | > 5.00 | 
O=C(Nc1ncc(C(NCc2ccco2)c2ccccc2Cl)s1)C1(c2ccc3c(c2)OCO3)CC1 (stereo not shown) [Example 412] |  | > 5.00 | > 100%
O=C(Nc1ncc(C(c2ccc(Cl)cc2Cl)N2CCCC2)s1)C1(c2ccc3c(c2)OCO3)CC1 (stereo not shown) [Example 467] |  | > 5.00 | > 100%
COc1ccccc1-c1csc(NC(=O)C2(c3ccc4c(c3)OCO4)CC2)n1 [Example 112] | + (“+” means<25%) | 4.60 to 5.00 | 
O=C(O)c1ccccc1Sc1cnc(NC(=O)C2(c3ccc4c(c3)OCO4)CC2)s1 [Example 101] | +++ (“+++” means>100%) | > 5.00 | 
O=C(Nc1ncc(C(c2ccccc2Cl)N2CC[C@@H](O)C2)s1)C1(c2cccc(F)c2)CC1 (stereo partly shown) [Example 447] |  | > 5.00 | > 100%

Compound | % Activity / % Efficacy (relative efficacy) | pEC50 | Emax
CC(C)C[C@H](CO)NC(c1cnc(NC(=O)C2(c3ccc4c(c3)OCO4)CC2)s1)c1cc(F)ccc1F (stereo partly shown) [Example 480] |  | > 5.00 | > 100%
O=C(Nc1ncc(Sc2cccc(Cl)c2)s1)C1(c2ccc3c(c2)OCO3)CC1 [Example 102] |  | > 5.00 | > 100%
CCC(c1cnc(NC(=O)C2(c3ccc4c(c3)OCO4)CC2)s1)N1CCOCC1 (stereo not shown) [Example 398] |  | 4.60 to 5.00 | 25 to 100%
Nc1ccc(Sc2cnc(NC(=O)C3(c4ccc5c(c4)OCO5)CC3)s2)cc1 [Example 100] | ++ (“++” means between 25% to 100%) | > 5.00 | 
O=C(Nc1ncc(C(c2cc(F)ccc2F)N2CCCC2)s1)C1(c2ccc3c(c2)OCO3)CC1 (stereo not shown) [Example 471] |  | > 5.00 | > 100%
COC[C@@H]1CCCN1C(Cc1ccccc1Cl)c1cnc(NC(=O)C2(c3ccc4c(c3)OCO4)CC2)s1 (stereo partly shown) [Example 456] |  | > 5.00 | > 100%
CN(C)CC(=O)Nc1ccc(C2(C(=O)Nc3ncc(Cc4ccccc4Cl)s3)CC2)cc1 [Example 312] |  | > 5.00 | 25 to 100%
CN(C)C(Cc1ccccc1Cl)c1cnc(NC(=O)C2(c3ccc4c(c3)OCO4)CC2)s1 (stereo not shown) [Example 457] |  | > 5.00 | > 100%
CN(C)C(c1ccccc1)c1cnc(NC(=O)C2(c3ccc4c(c3)OCO4)CC2)s1 (stereo not shown) [Example 356] |  | 4.60 to 5.00 | > 100%
COC[C@@H]1CCCN1C(c1ccc(S(C)(=O)=O)cc1)c1cnc(NC(=O)C2(c3ccc4c(c3)OCO4)CC2)s1 (stereo partly shown) [Example 379] |  | 4.60 to 5.00 | 25 to 100%
CS(=O)(=O)c1ccc(C(c2cnc(NC(=O)C3(c4ccc5c(c4)OCO5)CC3)s2)N2CCOCC2)cc1 (stereo not shown) [Example 382] |  | 4.60 to 5.00 | > 100%
CCC(c1cnc(NC(=O)C2(c3ccc4c(c3)OCO4)CC2)s1)N1CCCCC1 (stereo not shown) [Example 403] |  | 4.60 to 5.00 | > 100%
Cc1ccccc1C(c1cnc(NC(=O)C2(c3ccc4c(c3)OCO4)CC2)s1)N1CCCC1 (stereo not shown) [Example 469] |  | > 5.00 | > 100%
COc1ccc(C2(C(=O)Nc3nc(-c4ccc(C)cc4)cs3)CC2)cc1 [Example 77] | +++ (“+++” means>100%) | > 5.00 | 
O=C(Nc1ncc(C(c2ccccc2Cl)N2CC[C@@H](O)C2)s1)C1(c2cccc(C(F)(F)F)c2)CC1 (stereo partly shown) [Example 441] |  | > 5.00 | 25 to 100%
COc1ccc(C2(C(=O)Nc3ncc(Cc4cc(F)ccc4Cl)s3)CC2)cc1 [Example 90] | ++ (“++” means between 25% to 100%) | > 5.00 | 

From patent US7977322B2 (Vertex Pharmaceuticals Incorporated, priority 2004, dated 2011)
